# Where “and” joins values, the source holds several entries; their conditions need not be identical. Equal entries are not always repeated. Where two headings read alike, the source gives them in different places.
# Key:
# [1] = type: in vivo, female BLT mice; details: for genital tract tissue concentrations relative to what has been observed in women: single dose TFV 150 mg/kg, higher than in women (54)
# Protocol: For RPV LA, 14 mice were injected intramuscularly in the flank with 3 mg RPV LA, for a dose of approximately 150 mg/kg. Two mice were euthanized at 1, 3, 6, 12, 24, 48, and 168 h postinjection. For TFV/FTC, an additional 12 mice were injected intraperitoneally with 150 mg/kg TFV and 100 mg/kg FTC. Two mice were euthanized at 1, 3, 6, 12, 24, and 48 h postinjection. Blood was drawn at each time point until euthanasia, and plasma was separated. At necropsy, female genital tract and colon/rectum were collected, weighed, and immediately flash-frozen dry.
# RPV, TFV, and FTC were extracted from mouse plasma with isotopically labeled internal standards (RPV-d6; TFV-^13C5; and FTC-^13C, ^15N2, respectively) using protein precipitation. TFV and FTC were separated on a Waters Atlantis T3 (2.1 by 50 mm, 3 μm) high-performance liquid chromatography (HPLC) column and RPV on an Xterra MS C18 (2.1 by 50 mm, 3.5 μm) HPLC column. The calibrated ranges were 1 to 4,000 ng/ml (TFV and FTC) or 1 to 10,000 ng/ml (RPV). Calibration standards and quality control (QC) samples were prepared in blank plasma with an acceptance criteria of ±20%.
# Frozen tissue biopsy specimens were homogenized in 1 ml of cold 70:30 acetonitrile–1 mM ammonium phosphate (pH 7.4). RPV, TFV, FTC, TFVdp, and FTCtp were extracted from tissue homogenate with the following isotopically labeled internal standards: RPV-d6; TFV-^13C5; FTC-^13C, ^15N2; and TFVdp-^13C5 (for both TFVdp and FTCtp). For quantification, analytes and internal standards were separated on a Waters Atlantis T-3 C18 HPLC column (TFV and FTC), a ThermoBioBasic AX HPLC column (TFVdp and FTCtp), or an Xterra MS C18 (2.1 by 50 mm, 3.5 μm) HPLC column (RPV). The calibrated ranges were 0.300 to 300 ng/ml (TFV, FTC, TFVdp, and FTCtp) and 1 to 200 ng/ml (RPV). Resulting concentrations were normalized to tissue weight assuming a tissue density of 1 g/ml ([86]) and reported as nanograms or femtomole per gram. Calibration standards and QC samples were prepared in blank tissue homogenate with an acceptance criteria of ±20%.
# [2] = test system: Y181C; design: method as in PMID 19933797; details: cited from earlier work
# [3] = test system: Y181I/V; design: method as in PMID 19933797; details: cited from earlier work
# [4] = test system: simian immunodeficiency virus (SIV); details: cited from earlier work
# [5] = cited from earlier work
# [6] = test system: Y181I HIV-1NL4-BAL; test: Drug susceptibility assay in TZM-bl cells; type: cell-based; details: Fig. 1A
# [7] = test system: Y181V; design: method as in earlier work; details: cited from earlier work
# [8] = test system: E138K; test: RPV resistance of RT mutant (data not shown); type: cell-based, HIV-1
# [9] = even at a high dose; cited from earlier work
# [10] = test system: Y181C HIV-1NL4-BAL; test: Drug susceptibility assay in TZM-bl cells; type: cell-based; details: Fig. 1A
# Protocol: (§1) WT, Y181C, and Y181V HIV-1 stocks were phenotyped for resistance to RPV or RPV LA as previously described ([68]). Briefly, TZM-bl cells ([84]) were seeded at 5 × 10^3 cells in 96-well cell culture-treated, white-walled plates (PerkinElmer) in phenol red-free Dulbecco’s modified Eagle’s medium (DMEM; Life Technologies) supplemented with 10% fetal bovine serum (FBS; Atlanta Biologicals) and 100 U/ml penicillin, 100 μg/ml streptomycin, and 0.292 mg/ml L-glutamine (PSG; Life Technologies). The following day, virus was added at a multiplicity of infection (MOI) of 0.05 in the presence or absence of RPV dilutions in triplicate. Plates were incubated at 37°C for 48 h, and luciferase was measured using Britelite Plus reagent (PerkinElmer) on a Luminoskan Ascent microplate luminometer (Thermo Scientiﬁc). Relative light units (RLU) were converted to percent infection by dividing the RLU of each drug dilution by the RLU of the 100% infection control in the absence of drug. Wells containing cells with no virus and no drug were used to normalize for background luciferase output. The EC50 was calculated by log transforming drug concentrations and using a four-parameter variable-slope nonlinear regression for curve-ﬁtting analysis using PRISM 6 (GraphPad).
# [11] = test system: WT HIV-1CH185; test: Drug susceptibility assay in TZM-bl cells; type: cell-based; details: Human immunodeficiency virus 1, Fig. 9B
# Protocol: as §1
# [12] = test system: WT HIV-1NL4-BAL; test: Drug susceptibility assay in TZM-bl cells; type: cell-based; details: Human immunodeficiency virus 1, BAL
# Protocol: as §1
# [13] = test system: Y181V HIV-1CH185; test: Drug susceptibility assay in TZM-bl cells; type: cell-based; details: Fig. 9B
# Protocol: as §1
# [14] = test system: Y181V HIV-1NL4-BAL; test: Drug susceptibility assay in TZM-bl cells; type: cell-based
# Protocol: as §1
# [15] = test system: HIV-1; details: cited from earlier work
compound,measurement,setting,value
"CC(Cn1cnc2c(N)ncnc21)OCP(=O)(O)OP(=O)(O)OP(=O)(O)O (stereo in doubt) [TFVdp, TFV diphosphate]",genital tract tissue concentrations relative to what has been observed in women,[1],approximately 10 fold
Cc1ccnc2c1NC(=O)c1cccnc1N2C1CC1 [nevirapine],resistance conferred by Y181C,[2],> 40 fold
same,resistance conferred by Y181I/V,[3],> 60 fold
"Cc1cc(/C=C/C#N)cc(C)c1Nc1ccnc(Nc2ccc(C#N)cc2)n1 [RPV, rilpivirine]",inhibition of simian immunodeficiency virus (SIV),[4],does not inhibit
same,protein binding,[5],highly protein bound
same,resistance conferred by Y181C,[2],3 fold
same,fold increase in EC50 (RPV resistance) vs WT HIV-1NL4-BAL,[6],23 fold
same,resistance conferred by Y181V,[7],approximately 20 fold
same,resistance conferred by E138K,[8],2 fold
same,metabolism in macaques,[9],rapidly metabolized
same,fold increase in EC50 (RPV resistance) vs WT HIV-1NL4-BAL,[10],3 fold
same,EC50,[11],0.21 ± 0.003 nM
same,EC50,"[12]; Fig. 1A, read-out: 50% effective concentration (EC50)",0.54 nM and 0.0002 µg/mL
same,EC50,"[12]; Fig. 9B, read-out: average EC50",0.34 ± 0.07 nM
same,EC50,"[12]; RPV LA compared with soluble RPV, Fig. 2, read-out: EC50",0.6 nM and 0.00022 µg/mL
same,EC50,"[13]; Human immunodeficiency virus 1, TZM-bl cells",12 ± 1.5 nM
same,fold change from the level for WT HIV-1NL4-BAL,[13]; Y181V HIV-1CH185,36 fold
same,EC50,"[14]; Human immunodeficiency virus 1, BAL, TZM-bl cells, Fig. 9B",7.3 ± 1.3 nM
same,fold change from the level for WT HIV-1NL4-BAL,"[14]; Y181V HIV-1NL4-BAL, Fig. 9B",21 fold
same,fold increase in EC50 (RPV resistance) vs WT HIV-1NL4-BAL,"[14]; Y181V, TZM-bl cells, Fig. 1A",27 fold
same,reduced susceptibility to RPV of virus encoding Y181V,[14]; discussion,> 20 fold
same,RPV resistance of Y181V HIV-1,[14]; in the viruses used for this study (abstract),30 fold
same,protein-adjusted 90% effective concentration (EC90),[15],0.012 µg/mL and 0.0121 µg/mL
same,EC90,[15]; read-out: protein-adjusted EC90,33 nM
"Nc1nc(=O)n([C@@H]2CS[C@H](COP(=O)(O)OP(=O)(O)OP(=O)(O)O)O2)cc1F [FTCtp, FTC triphosphate]",tissue FTC triphosphate (FTCtp) concentrations,"[1]; female genital tract, 12 h, 24 h, and 48 h postdose, single dose PK study",undetectable
"C[C@H](Cn1cnc2c(N)ncnc21)OCP(=O)(O)O [TFV, tenofovir]",genital tract tissue concentrations relative to what has been observed in women,[1],approximately 10 fold
